Results reported in PubChem BioAssay (NCI).
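GI50 is the concentration that inhibits growth by half. TGI: concentration producing complete growth inhibition.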

Experiments:
Experiment in all cases: inhibition of tumour cell growth, NCI panel, 384-well format
UACC-257 melanoma = tested on: UACC-257 melanoma
NCI-H322M lung = tested on: NCI-H322M lung
HL-60(TB) leukemia = tested on: HL-60(TB) leukemia
SN12C renal = tested on: SN12C renal
NCI/ADR-RES ovarian = tested on: NCI/ADR-RES ovarian
ACHN renal = tested on: ACHN renal
CCRF-CEM leukemia = tested on: CCRF-CEM leukemia
EKVX NSCLC = tested on: EKVX NSCLC
OVCAR-8 ovarian = tested on: OVCAR-8 ovarian
IGROV1 ovarian = tested on: IGROV1 ovarian
SF-295 CNS = tested on: SF-295 CNS
OVCAR-5 ovarian = tested on: OVCAR-5 ovarian
SNB-75 CNS = tested on: SNB-75 CNS
UO-31 renal = tested on: UO-31 renal
COLO 205 colon = tested on: COLO 205 colon
U251 glioblastoma = tested on: U251 glioblastoma
TK-10 renal = tested on: TK-10 renal
HOP-62 NSCLC = tested on: HOP-62 NSCLC
HS 578T breast = tested on: HS 578T breast
PC-3 prostate = tested on: PC-3 prostate
MALME-3M melanoma = tested on: MALME-3M melanoma
MCF7 breast = tested on: MCF7 breast
A549 NSCLC = tested on: A549 NSCLC
MDA-MB-231 breast = tested on: MDA-MB-231 breast
MDA-MB-435 melanoma = tested on: MDA-MB-435 melanoma
SNB-19 CNS = tested on: SNB-19 CNS
KM12 colon = tested on: KM12 colon
MDA-MB-468 breast = tested on: MDA-MB-468 breast
HT29 colon = tested on: HT29 colon
M14 melanoma = tested on: M14 melanoma
HCC-2998 colon = tested on: HCC-2998 colon
A498 renal = tested on: A498 renal
SK-OV-3 ovarian = tested on: SK-OV-3 ovarian
T-47D breast = tested on: T-47D breast
SK-MEL-28 melanoma = tested on: SK-MEL-28 melanoma
HOP-92 NSCLC = tested on: HOP-92 NSCLC
NCI-H226 lung = tested on: NCI-H226 lung
SK-MEL-5 melanoma = tested on: SK-MEL-5 melanoma
NCI-H522 lung = tested on: NCI-H522 lung
LOX IMVI melanoma = tested on: LOX IMVI melanoma
UACC-62 melanoma = tested on: UACC-62 melanoma
SR leukemia = tested on: SR leukemia
HCT-116 colon = tested on: HCT-116 colon
SF-539 CNS = tested on: SF-539 CNS
RXF 393 renal = tested on: RXF 393 renal
DU-145 prostate = tested on: DU-145 prostate
OVCAR-3 ovarian = tested on: OVCAR-3 ovarian
K-562 leukemia = tested on: K-562 leukemia
SF-268 CNS = tested on: SF-268 CNS
BT-549 breast = tested on: BT-549 breast
RPMI-8226 leukemia = tested on: RPMI-8226 leukemia
CAKI-1 renal = tested on: CAKI-1 renal
MOLT-4 leukemia = tested on: MOLT-4 leukemia
SW-620 colon = tested on: SW-620 colon
NCI-H23 lung = tested on: NCI-H23 lung
OVCAR-4 ovarian = tested on: OVCAR-4 ovarian
786-0 renal = tested on: 786-0 renal
NCI-H460 NSCLC = tested on: NCI-H460 NSCLC

## CCOC(=O)C1=CCCC[C@H]1S(=O)(=O)Nc1ccc(F)cc1Cl
UACC-257 melanoma
  GI50: 17.5 µM
  TGI: 84.9 µM
NCI-H322M lung
  GI50: 20.1 µM
  TGI: 51.1 µM
HL-60(TB) leukemia
  GI50: 10.6 µM
  TGI: 22.7 µM
SN12C renal
  GI50: 18.4 µM
  TGI: 48.4 µM
NCI/ADR-RES ovarian
  GI50: 18.6 µM
  TGI: 39.4 µM
ACHN renal
  GI50: 27.9 µM
  TGI: 85.2 µM
CCRF-CEM leukemia
  GI50: 14.8 µM
  TGI: 28.9 µM
EKVX NSCLC
  GI50: 19.4 µM
  TGI: 44.3 µM
OVCAR-8 ovarian
  GI50: 15.6 µM
  TGI: 38.6 µM
IGROV1 ovarian
  GI50: 29.8 µM
  TGI: > 100 µM
SF-295 CNS
  GI50: 19.2 µM
  TGI: 52.5 µM
OVCAR-5 ovarian
  GI50: 26.7 µM
  TGI: 70.6 µM
SNB-75 CNS
  GI50: 20.4 µM
  TGI: 55.3 µM
UO-31 renal
  GI50: 19 µM
  TGI: 47.2 µM
COLO 205 colon
  GI50: 28.4 µM
  TGI: 62.8 µM
U251 glioblastoma
  GI50: 18.1 µM
  TGI: 41 µM
TK-10 renal
  GI50: 22 µM
  TGI: 60.5 µM
HOP-62 NSCLC
  GI50: 19.4 µM
  TGI: 73.7 µM
HS 578T breast
  GI50: 16.1 µM
  TGI: 42.2 µM
PC-3 prostate
  GI50: 18.8 µM
  TGI: 41 µM
MALME-3M melanoma
  GI50: 21.7 µM
  TGI: 57.6 µM
MCF7 breast
  GI50: 14.1 µM
  TGI: 33 µM
A549 NSCLC
  GI50: 32.1 µM
  TGI: > 100 µM
MDA-MB-231 breast
  GI50: 27.3 µM
  TGI: > 100 µM
MDA-MB-435 melanoma
  GI50: 31 µM
  TGI: > 100 µM
SNB-19 CNS
  GI50: 23.6 µM
  TGI: 79.9 µM
KM12 colon
  GI50: 21 µM
  TGI: 48.4 µM
MDA-MB-468 breast
  GI50: 12.4 µM
  TGI: 27.2 µM
HT29 colon
  GI50: 29.8 µM
  TGI: > 100 µM
M14 melanoma
  GI50: 21.9 µM
  TGI: 68 µM
HCC-2998 colon
  GI50: 18.4 µM
  TGI: 37.3 µM
A498 renal
  GI50: 19.5 µM
  TGI: 49.6 µM
SK-OV-3 ovarian
  GI50: 22.3 µM
  TGI: 65.5 µM
T-47D breast
  GI50: 11.4 µM
  TGI: 24.1 µM
SK-MEL-28 melanoma
  GI50: > 100 µM
  TGI: > 100 µM
HOP-92 NSCLC
  GI50: 16.9 µM
  TGI: 39.8 µM
NCI-H226 lung
  GI50: 18.8 µM
  TGI: 52.3 µM

## CN[C@H]1CN(c2ccc3c(=O)c(C(=O)O)cn(-c4nccs4)c3n2)C[C@@H]1OC
SK-MEL-5 melanoma
  GI50: 1.15 µM
  TGI: 2.54 µM
NCI-H522 lung
  GI50: 1.21 µM
  TGI: 5.61 µM
NCI-H322M lung
  GI50: 3.52 µM
  TGI: 39.7 µM
LOX IMVI melanoma
  GI50: 0.776 µM
  TGI: 2.12 µM
HL-60(TB) leukemia
  GI50: 0.0776 µM
  TGI: 0.238 µM
UACC-62 melanoma
  GI50: 0.427 µM
  TGI: 1.89 µM
SN12C renal
  GI50: 0.403 µM
  TGI: 2.77 µM
SR leukemia
  GI50: 0.0189 µM
  TGI: 0.0443 µM
ACHN renal
  GI50: 0.458 µM
  TGI: 2.44 µM
CCRF-CEM leukemia
  GI50: 0.0586 µM
  TGI: 0.276 µM
HCT-116 colon
  GI50: 0.371 µM
  TGI: 3.76 µM
OVCAR-8 ovarian
  GI50: 0.637 µM
  TGI: > 100 µM
IGROV1 ovarian
  GI50: 1.8 µM
  TGI: > 100 µM
SF-295 CNS
  GI50: 0.426 µM
  TGI: 2.63 µM
SNB-75 CNS
  GI50: 0.855 µM
  TGI: 2.47 µM
UO-31 renal
  GI50: 1.47 µM
  TGI: 8.66 µM
COLO 205 colon
  GI50: 0.394 µM
  TGI: > 100 µM
U251 glioblastoma
  GI50: 0.675 µM
  TGI: 2.56 µM
SF-539 CNS
  GI50: 0.85 µM
  TGI: > 100 µM
TK-10 renal
  GI50: 1.79 µM
  TGI: 12.1 µM
RXF 393 renal
  GI50: 0.86 µM
  TGI: 5.37 µM
HOP-62 NSCLC
  GI50: 0.479 µM
  TGI: 2.2 µM
DU-145 prostate
  GI50: 1.49 µM
  TGI: 7.07 µM
OVCAR-3 ovarian
  GI50: 1.32 µM
  TGI: 6.19 µM
HS 578T breast
  GI50: 0.64 µM
  TGI: 5.24 µM
K-562 leukemia
  GI50: 0.616 µM
  TGI: 6.05 µM
PC-3 prostate
  GI50: 2.41 µM
  TGI: 15.4 µM
MALME-3M melanoma
  GI50: 1.06 µM
  TGI: 2.7 µM
MCF7 breast
  GI50: 0.602 µM
  TGI: > 100 µM
A549 NSCLC
  GI50: 0.686 µM
  TGI: > 100 µM
MDA-MB-231 breast
  GI50: 1.41 µM
  TGI: 11.4 µM
MDA-MB-435 melanoma
  GI50: 3.5 µM
  TGI: > 100 µM
SNB-19 CNS
  GI50: 0.559 µM
  TGI: 2.93 µM
KM12 colon
  GI50: 0.654 µM
  TGI: 10.7 µM
MDA-MB-468 breast
  GI50: 0.787 µM
  TGI: 2.57 µM
HT29 colon
  GI50: 1.28 µM
  TGI: 3.88 µM
SF-268 CNS
  GI50: 0.421 µM
  TGI: 6.03 µM
BT-549 breast
  GI50: 0.585 µM
  TGI: 6.87 µM
M14 melanoma
  GI50: 0.674 µM
  TGI: 3.02 µM
RPMI-8226 leukemia
  GI50: 0.0605 µM
  TGI: 1.18 µM
CAKI-1 renal
  GI50: 0.752 µM
  TGI: 6.44 µM
A498 renal
  GI50: 0.781 µM
  TGI: 3.83 µM
MOLT-4 leukemia
  GI50: 0.0305 µM
  TGI: 0.12 µM
SK-OV-3 ovarian
  GI50: 1.8 µM
  TGI: 26.3 µM
SW-620 colon
  GI50: 0.823 µM
  TGI: 7.71 µM
SK-MEL-28 melanoma
  GI50: 1.13 µM
  TGI: 2.93 µM
NCI-H23 lung
  GI50: 0.551 µM
  TGI: 2.57 µM
OVCAR-4 ovarian
  GI50: 4.36 µM
  TGI: > 100 µM
786-0 renal
  GI50: 0.434 µM
  TGI: 4.59 µM
HOP-92 NSCLC
  GI50: 1.61 µM
  TGI: 8.56 µM
NCI-H460 NSCLC
  GI50: 0.206 µM
  TGI: 1.35 µM
NCI-H226 lung
  GI50: 1.23 µM
  TGI: 3.6 µM
